From US10947244B2, “Forms of a PI3K delta selective inhibitor for use in pharmaceutical formulations” (Rhizen Pharmaceuticals SA, priority 2014, dated 2021)

Test: Particle size (PSD) analysis, Malvern Master Sizer 2000 dry powder
Type: physicochemical
Settings: PTSA salt of TGR-1202; average of three experiments
Method: Particle size (PSD) analysis of the PTSA salts of TGR-1202 prepared in Examples 1 and 2 was performed as described below using a Malvern Master Sizer 2000 with the Scirocco 2000 dry powder system. The instrument parameters were: • Particle RI: 1.50 • Absorption index: 0.1 • Obscuration range: 1-5% • Analysis Model: General purpose • Sensitivity: Normal • Air Pressure: 2.0 Bar • Feed rate: 30% • Sample measurement Time: 6 Second • Background measurement Time: 6 Second • Number of measurement cycle: 1
Procedure: 5 g of TGR-1202 was transferred into a sample measuring cell (i.e., Scirocco 2000) and the airflow was started. Laser intensity was maintained more than 70%. Measurement was started and the vibration feed rate was increased in order to achieve the obscuration within the limits. Once the obscuration came within the limit, measurement was recorded. Analysis was performed in triplicate and the results provided are an average of three experiments.

Compound	d(0.1) [μm]	d(0.5) [μm]	d(0.9) [μm]
CC(C)Oc1ccc(-c2nn([C@@H](C)c3oc4ccc(F)cc4c(=O)c3-c3cccc(F)c3)c3ncnc(N)c23)cc1F [Example 2, (S)-2-(1-(4-amino-3-(3-fluoro-4-isopropoxyphenyl)-1H-pyrazolo[3,4-d]pyrimidin-1-yl)ethyl)-6-fluoro-3-(3-fluorophenyl)-4H-chromen-4-one 4-methyl-benzenesulfonate]	1.07	3.98	12.18
CC(C)Oc1ccc(-c2nn([C@@H](C)c3oc4ccc(F)cc4c(=O)c3-c3cccc(F)c3)c3ncnc(N)c23)cc1F [Example 1, (S)-2-(1-(4-amino-3-(3-fluoro-4-isopropoxyphenyl)-1H-pyrazolo[3,4-d]pyrimidin-1-yl)ethyl)-6-fluoro-3-(3-fluorophenyl)-4H-chromen-4-one 4-methyl-benzenesulfonate]	8.01	147.41	510.73
